pIC50: −log10 of the molar value.
Target: T1, hCCR4 (Homo sapiens, UniProt P51679)
T1 sequence (P51679 1-360): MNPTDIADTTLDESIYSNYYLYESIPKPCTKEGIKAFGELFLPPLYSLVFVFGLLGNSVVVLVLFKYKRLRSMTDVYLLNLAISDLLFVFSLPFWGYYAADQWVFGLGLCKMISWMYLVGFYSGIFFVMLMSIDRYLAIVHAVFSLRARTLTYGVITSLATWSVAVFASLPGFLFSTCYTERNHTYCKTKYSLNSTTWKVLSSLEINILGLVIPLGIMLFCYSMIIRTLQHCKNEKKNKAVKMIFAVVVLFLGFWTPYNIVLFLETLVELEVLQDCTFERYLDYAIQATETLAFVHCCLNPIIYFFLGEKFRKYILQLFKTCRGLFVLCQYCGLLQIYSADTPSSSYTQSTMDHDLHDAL
Experiment: Calcium flux assay
Assay type: cell-based
Conditions: Chem5-hCCR4 cells, CCL22 at EC80 of 1.5 nM, FLIPR Calcium 6 dye; read-out: Potency (IC50)
Protocol: Calcium Flux Assay. Compounds were evaluated in a calcium flux assay substantially performed as follows. Chem5-hCCR4 cells (EMD Millipore, Hayward, Calif.; HTS009C) were cultured under standard conditions and frozen in aliquots of 10×10^6 cells/mL. The day prior to compound testing, a vial was rapidly thawed and pipetted into 20 mL media (DMEM+10% FBS+1% Pen-Strep+1% L-glutamine). Cells were harvested by centrifugation and re-suspended in fresh culture medium. 25 μL of cell suspension was seeded into 384-well plates (Corning, Tewksbury, Mass.; CellBind with black wall/clear bottom). The plates were centrifuged at 300 g for 10 seconds and incubated overnight at 37° C. and 5% CO2. The day of compound testing, media was removed from the plates and 25 μL serum free media was added to each well. Plates were returned to the incubator for 2 h. 25 μL assay buffer (Hank's balanced salt solution+20 mM HEPES pH 7.4) containing FLIPR Calcium 6 dye (Molecular Devices, Sunnyvale, Calif.; # R8191) and probenecid (2.5 mM) was added to each well and incubated at 37° C. and 5% CO2 for 2 h. Compounds in DMSO were added to the plates using an HP D300e digital dispenser, and all wells were normalized to contain 0.25 μL (0.5%) DMSO. Plates were incubated for 1 hour at 37° C. and 5% CO2. CCL22 (Peprotech; Rockyhill, N.J.) was diluted in assay buffer containing 0.1% BSA to 7.5 nM (corresponding to 5×EC80 of 1.5 nM).
Assay plates and working solution of CCL22 were transferred to the FlexStation plate reader (Molecular Devices) at 37° C. for 5 min of equilibration. Fluorescence recordings at 485 excitation/525 emission were performed at 2.5 second intervals. At t=16 seconds, 12.5 μL of CCL22 solution was added to each well and reads continued for 30 seconds at 2.5 second intervals. The minimum fluorescence (Fmin) was calculated by averaging the reads prior to ligand addition and the change in fluorescence (ΔF) was calculated by subtracting the Fmin from the average of the reads following ligand addition. The response ΔF/Fmin was plotted as a function of the compound concentration and the IC50 values were determined by non-linear regression analysis using a 4-parameter fit in either PRISM software (GraphPad; La Jolla, Calif.) or Dotmatics Browser.

Compound | pIC50
C[C@H](c1ccc(Cl)cc1Cl)n1nc(C#N)c2ncc(N3CC(C4CCCN(C5CCS(=O)(=O)CC5)C4)C3)nc21 (mixture of isomers) [Example 61, 1-((R)-1-(2,4-dichlorophenyl)ethyl)-6-(3-((R)-1-(1,1-dioxidotetrahydro-2H-thiopyran-4-yl)piperidin-3-yl)azetidin-1-yl)-1H-pyrazolo[3,4-b]pyrazine-3-carbonitrile and 1-((R)-1-(2,4-dichlorophenyl)ethyl)-6-(3-((S)-1-(1,1-dioxidotetrahydro-2H-thiopyran-4-yl)piperidin-3-yl)azetidin-1-yl)-1H-pyrazolo[3,4-b]pyrazine-3-carbonitrile] | > 7.00
C[C@H](c1ccc(Cl)cc1Cl)n1nc(C#N)c2ncc(N3CC(C4CCCN(C5CCOCC5)C4)C3)nc21 (mixture of isomers) [Example 62, 1-((R)-1-(2,4-dichlorophenyl)ethyl)-6-(3-((R)-1-(tetrahydro-2H-pyran-4-yl)piperidin-3-yl)azetidin-1-yl)-1H-pyrazolo[3,4-b]pyrazine-3-carbonitrile and 1-((R)-1-(2,4-dichlorophenyl)ethyl)-6-(3-((S)-1-(tetrahydro-2H-pyran-4-yl)piperidin-3-yl)azetidin-1-yl)-1H-pyrazolo[3,4-b]pyrazine-3-carbonitrile] | > 7.00
CC(=O)NCCN1CCCC(C2CN(c3cnc4c(C)nn([C@H](C)c5ccc(Cl)cc5Cl)c4n3)C2)C1 (mixture of isomers) [Example 63, N-(2-((R)-3-(1-(1-((R)-1-(2,4-dichlorophenyl)ethyl)-3-methyl-1H-pyrazolo[3,4-b]pyrazin-6-yl)azetidin-3-yl)piperidin-1-yl)ethyl)acetamide and N-(2-((S)-3-(1-(1-((R)-1-(2,4-dichlorophenyl)ethyl)-3-methyl-1H-pyrazolo[3,4-b]pyrazin-6-yl)azetidin-3-yl)piperidin-1-yl)ethyl)acetamide] | > 7.00
Cc1nn([C@H](C)c2ccc(Cl)cc2Cl)c2nc(N3CC(C4CCCN(CCNS(C)(=O)=O)C4)C3)cnc12 (mixture of isomers) [Example 64, N-[2-[(R)-3-[1-[1-[(1R)-1-(2,4-dichlorophenyl)ethyl]-3-methyl-pyrazolo[3,4-b]pyrazin-6-yl]azetidin-3-yl]-1-piperidyl]ethyl]methanesulfonamide and N-[2-[(S)-3-[1-[1-[(1R)-1-(2,4-dichlorophenyl)ethyl]-3-methyl-pyrazolo[3,4-b]pyrazin-6-yl]azetidin-3-yl]-1-piperidyl]ethyl]methanesulfonamide] | > 7.00
Cc1nn([C@H](C)c2ccc(Cl)cc2Cl)c2nc(N3CC(C4CCCN(CCNS(=O)(=O)C(C)C)C4)C3)cnc12 (mixture of isomers) [Example 65, N-(2-((R)-3-(1-(1-((R)-1-(2,4-dichlorophenyl)ethyl)-3-methyl-1H-pyrazolo[3,4-b]pyrazin-6-yl)azetidin-3-yl)piperidin-1-yl)ethyl)propane-2-sulfonamide and N-(2-((S)-3-(1-(1-((R)-1-(2,4-dichlorophenyl)ethyl)-3-methyl-1H-pyrazolo[3,4-b]pyrazin-6-yl)azetidin-3-yl)piperidin-1-yl)ethyl)propane-2-sulfonamide] | > 7.00
COC(=O)NCCN1CCCC(C2CN(c3cnc4c(C)nn([C@H](C)c5ccc(Cl)cc5Cl)c4n3)C2)C1 (mixture of isomers) [Example 67, Methyl (2-((R)-3-(1-(1-((R)-1-(2,4-dichlorophenyl)ethyl)-3-methyl-1H-pyrazolo[3,4-b]pyrazin-6-yl)azetidin-3-yl)piperidin-1-yl)ethyl)carbamate and methyl (2-((S)-3-(1-(1-((R)-1-(2,4-dichlorophenyl)ethyl)-3-methyl-1H-pyrazolo[3,4-b]pyrazin-6-yl)azetidin-3-yl)piperidin-1-yl)ethyl)carbamate] | > 7.00
Cc1nn([C@H](C)c2ccc(Cl)cc2Cl)c2nc(N3CC([C@@H]4CCCN(CC(=O)O)C4)C3)cnc12 (single isomer, unassigned) [Example 2] | < 6.30
Cc1nn([C@H](C)c2ccc(Cl)cc2Cl)c2nc(N3CC([C@H]4CCCN(CC(=O)O)C4)C3)cnc12 (single isomer, unassigned) [Example 3] | < 6.30
Cc1nn([C@H](C)c2ccc(Cl)cc2Cl)c2nc(N3CC([C@@H]4CCCN(CCS(N)(=O)=O)C4)C3)cnc12 (single isomer, unassigned) [Example 5] | < 6.30
Cc1nn([C@H](C)c2ccc(Cl)cc2Cl)c2nc(N3CC([C@H]4CCCN(CCS(N)(=O)=O)C4)C3)cnc12 (single isomer, unassigned) [Example 6] | > 7.00
Cc1nn([C@H](C)c2ccc(Cl)cc2Cl)c2nc(N3CC([C@H]4CCCN(CCC(=O)O)C4)C3)cnc12 (single isomer, unassigned) [Example 8] | > 7.00
Cc1nn([C@H](C)c2ccc(Cl)cc2Cl)c2nc(N3CC([C@@H]4CCCN(CCC(=O)O)C4)C3)cnc12 (single isomer, unassigned) [Example 9] | < 6.30
Cc1nn([C@H](C)c2ccc(Cl)cc2Cl)c2nc(N3CC([C@H]4CCCN(CCCC(=O)O)C4)C3)cnc12 (single isomer, unassigned) [Example 10] | > 7.00
Cc1nn([C@H](C)c2ccc(Cl)cc2Cl)c2nc(N3CC([C@@H]4CCCN(CCCC(=O)O)C4)C3)cnc12 (single isomer, unassigned) [Example 11] | 6.30 to 7.00
Cc1nn([C@H](C)c2ccc(Cl)cc2Cl)c2nc(N3CC([C@@H]4CCCN(CCC(N)=O)C4)C3)cnc12 (single isomer, unassigned) [Example 12] | 6.30 to 7.00
Cc1nn([C@H](C)c2ccc(Cl)cc2Cl)c2nc(N3CC([C@H]4CCCN(CCC(N)=O)C4)C3)cnc12 (single isomer, unassigned) [Example 13] | > 7.00
Cc1nn([C@H](C)c2ccc(Cl)cc2Cl)c2nc(N3CC([C@H]4CCCN(CCCO)C4)C3)cnc12 (single isomer, unassigned) [Example 14] | > 7.00
Cc1nn([C@H](C)c2ccc(Cl)cc2Cl)c2nc(N3CC([C@@H]4CCCN(CCCO)C4)C3)cnc12 (single isomer, unassigned) [Example 15] | 6.30 to 7.00
C[C@H](c1ccc(Cl)cc1Cl)n1nc(C#N)c2ncc(N3CC([C@H]4CCCN(CCCC(=O)O)C4)C3)nc21 (single isomer, unassigned) [Example 18] | > 7.00
C[C@H](c1ccc(Cl)cc1Cl)n1nc(C#N)c2ncc(N3CC([C@@H]4CCCN(CCCC(=O)O)C4)C3)nc21 (single isomer, unassigned) [Example 19] | > 7.00
C[C@H](c1ccc(Cl)cc1Cl)n1nc(C#N)c2ncc(N3CC([C@@H]4CCCN(CCC(N)=O)C4)C3)nc21 (single isomer, unassigned) [Example 25] | > 7.00
C[C@H](c1ccc(Cl)cc1Cl)n1nc(C#N)c2ncc(N3CC([C@H]4CCCN(CCC(N)=O)C4)C3)nc21 (single isomer, unassigned) [Example 26] | > 7.00
CC(O)CN1CCC[C@H](C2CN(c3cnc4c(C#N)nn([C@H](C)c5ccc(Cl)cc5Cl)c4n3)C2)C1 (single isomer, unassigned) [Example 28] | > 7.00
CC(O)CN1CCC[C@H](C2CN(c3cnc4c(C#N)nn([C@H](C)c5ccc(Cl)cc5Cl)c4n3)C2)C1 (single isomer, unassigned) [Example 29] | > 7.00

Source: patent US10604526B2, “Chemokine receptor modulators and uses thereof” (RAPT THERAPEUTICS, INC., priority 2016, dated 2020)
